In brackets after ≈: the same amount, converted by molar mass. Like-named read-outs stand apart in the source and are kept apart here.
Columns and labels:
[1] = Maximum solubility of ITZA and azole analogues in solvents (HPLC); assay type: physicochemical; conditions: for solubility at 30 min: organic solvent or mixture, thermodynamic from solid
Description: ITZA and its analogues were dissolved in various solvents incubated at 37° C. for 30 minutes, cooled down to room temperature, centrifuged at 14,000 rpm for 1 min. The supernatant was analyzed using HPLC to determine the maximum solubility of ITZA and its azole analogues.
In a first step the maximum ITZA solubility in various single solvents was determined. To this end, ITZA and its analogs were dissolved in various solvents, incubated at 37° C. for 30 minutes, cooled down to room temperature, centrifuged at 14,000 rpm for 1 min. The supernatant was analyzed using HPLC to determine the maximum solubility of the respective agent.
The solubility of ITZA was determined in several individual vehicles. Briefly, a known amount of ITZA drug, formulated as a powder (Sigma Inc., St Louis, Mo.), was equilibrated in the respective solvent at RT over 1-4 hours. An aliquot was removed, filtered, and prepared for HPLC to determine maximum solubility at room temperature. Based on the ITZA solubility in each vehicle, different solvents were mixed according to the cosolvency principle in an attempt to arrive at an enhanced stable solubility. […] The stock formulation was then diluted with a final diluent, i.e. NS or D5W or DlOW, to yield a stable use-formulation. The desired range of the final use-formulation was between 1 and 5 mg/mL, as it would result in a final volume that could be safely and conveniently infused intravascularly.
An excess of ITZA as a powder was added to a multitude of chemical solvents (Table 1) at RT. Each mixture was intermittently vortexed, placed in a dark environment and checked visually for up to 4 hours for evidence of solubilization. Following centrifugation to remove solid particles, small samples were withdrawn after consecutive time intervals and the ITZA concentration was determined by HPLC as described.

[2] = test system: Candida cruzei (ATCC strain 6258); experiment: Yeast susceptibility test, MIC (CLSI standard); assay type: cell-based; conditions: tested range 38 μg/mL to 0.03 μg/mL, read out at 24 hours, average of three experiments
Description: (§1) Briefly, susceptibility tests were set-up using a standardized methodology (CLSI […] standard). Drugs were diluted into RPMI-Mops medium (Yeast One Broth (Sensititer, product Y3462, Trek Diagnostic Systems, Cleveland, Ohio) Sensititer Lot number 151416SA-expiration date 2011-01). Two different strains of yeast were tested, the standardized evaluation/read out was performed at 24 hours after the start of each culture. The tests were repeated twice and all MIC (minimum inhibitory concentration) values are reported as an average of the three experiments.

Candida parapsilosis = experiment: Yeast susceptibility test, MIC (CLSI standard); assay type: cell-based; conditions: tested range 38 μg/mL to 0.03 μg/mL, read out at 24 hours, average of three experiments
Description: as §1

[3] = test system: Aspergillus fumigatus (ATCC strain 90906); experiment: Mold susceptibility test, MIC (CLSI M38A); assay type: cell-based
Description: (§2) Two hyaline molds were tested with a standard read out at 48 hrs:
(§3) Tested drug range: 75 μg/mL to 0.07 μg/mL
(§4) To further determine the antifungal activity of the compounds in the new formulation systems we investigated the efficacy of the various agents against additional strains of mucor and Aspergillus (9/-16-9/20/2010) (The Rhizomucor was a clinical isolate from a patient isolate) and the Aspergillus fumigatus (ATCC strain 90906) used was a repeat from the previously described experiment. Again, the susceptibility tests were set-up using the standardized test method (CLSI M38A). The used drugs were provided in the described H3 final use-formulation that has been previously described. All drugs were diluted in RPMI-Mops medium (YeastOne, Sensititer Lot 151416SA, expiration date January 2011).
As before two different molds were tested with a standard read out at 48 hr: • Drug dilution range 75 μg/mL to 0.07 μg/mL. • Aspergillus fumigatus (ATCC strain 90906) Zygomycete (Clinical Lab isolate, MDACC) […]

[4] = test system: Aspergillus fumigatus (Clinical Lab isolate); experiment: Mold susceptibility test, MIC; assay type: cell-based; conditions: tested range 75 μg/mL to 0.07 μg/mL, read out at 48 hrs
Description: as §2, §3, §1

[5] = test system: Zygomycete (Clinical Lab isolate, MDACC); experiment: Extended mold testing, MIC (CLSI M38A); assay type: cell-based; conditions: H3 final use-formulation, range 75 μg/mL to 0.07 μg/mL, 48 hr
From the text: as §4
As before two different molds were tested with a standard read out at 48 hr: • Drug dilution range 75 μg/mL to 0.07 μg/mL. • Aspergillus fumigatus (ATCC strain 90906) Zygomycete (Clinical Lab isolate, MDACC)

[6] = solvent H3D (no benzyl alcohol), single determination, read-out: Azole solubility, [Drug] mg/mL
[7] = solvent H3D (no benzyl alcohol), read-out: Azole solubility, Average mg/mL
[8] = solvent H3G (no benzyl alcohol), single determination, read-out: Azole solubility, [Drug] mg/mL
[9] = solvent H3G (no benzyl alcohol), read-out: Azole solubility, Average mg/mL
[10] = solvent H3D (no benzyl alcohol), single determination
[11] = solvent H3G (no benzyl alcohol), single determination
[12] = extended mold testing (repeat), H3 final use-formulation, range 75 μg/mL to 0.07 μg/mL, 48 hr
[13] = tested range 75 μg/mL to 0.07 μg/mL, read out at 48 hrs, first experiment
[14] = Aspergillus fumigatus, 48 h, read-out: MIC

| Compound | solubility at 30 min [1, 6] | solubility at 30 min [1, 7] | solubility at 30 min [1, 8] | solubility at 30 min [1, 9] | Azole solubility, [Drug] mg/mL [1, 10] | Azole solubility, [Drug] mg/mL [1, 11] | MIC [2] | MIC (Candida parapsilosis; 24 h, read-out: MIC) | MIC [3, 12] | MIC [3, 13] | MIC [4] | MIC [5] | MIC (Candida parapsilosis) | MIC ([2]; Candida, ATCC6258, 24 h, read-out: MIC) | MIC ([3]; Aspergillus fumigatus, ATCC90906, 48 h, extended mold testing (repeat), H3 final use-formulation, range 75 μg/mL to 0.07 μg/mL, 48 hr, read-out: MIC) | MIC ([3]; Aspergillus fumigatus, ATCC90906, 48 h, tested range 75 μg/mL to 0.07 μg/mL, read out at 48 hrs, first experiment, read-out: MIC) | MIC [4, 14] | MIC ([5]; read-out: MIC) |
| --- | --- | --- | --- | --- | --- | --- | --- | --- | --- | --- | --- | --- | --- | --- | --- | --- | --- | --- |
| OC(Cn1cncn1)(Cn1cncn1)c1ccc(F)cc1F [FZSA, Fluconazole] | 38.6 mg/mL (≈ 126000 µM) | 36.1 mg/mL (≈ 118000 µM) | 28.4 mg/mL (≈ 92700 µM) | 30.3 mg/mL (≈ 98900 µM) | 33.5 mg/mL | 32.2 mg/mL | all grew | 1.2 µg/mL (≈ 3.92 µM) | all grew | all grew | all grew | all grew |  |  |  |  |  |  |
| CCC(C)n1ncn(-c2ccc(N3CCN(c4ccc(OCC5COC(Cn6cncn6)(c6ccc(Cl)cc6Cl)O5)cc4)CC3)cc2)c1=O (stereo not drawn) [ITZA(ref 2), itraconazole] |  |  |  |  |  |  | 0.3 µg/mL (≈ 0.425 µM) |  | 0.3 µg/mL (≈ 0.425 µM) | 0.6 µg/mL (≈ 0.85 µM) | 0.3 µg/mL (≈ 0.425 µM) | 2.5 µg/mL (≈ 3.54 µM) | 0.15 µg/mL (≈ 0.213 µM) |  |  |  |  |  |
| CC(=O)N1CCN(c2ccc(OCC3COC(Cn4ccnc4)(c4ccc(Cl)cc4Cl)O3)cc2)CC1 (stereo not drawn) [KZSA, Ketoconazole] | 15.4 mg/mL (≈ 29000 µM) | 15.3 mg/mL (≈ 28800 µM) | 14.8 mg/mL (≈ 27800 µM) | 14.9 mg/mL (≈ 28000 µM) | 15.2 mg/mL | 15.1 mg/mL |  | 0.03 µg/mL (≈ 0.0565 µM) |  |  |  |  |  | 0.15 µg/mL (≈ 0.282 µM) | 10 µg/mL (≈ 18.8 µM) | 20 µg/mL (≈ 37.6 µM) | 20 µg/mL (≈ 37.6 µM) | 38 µg/mL (≈ 71.5 µM) |
| COC(=O)Nc1nc2ccc(C(=O)c3ccccc3)cc2[nH]1 [MBZSA, Mebendazole] |  |  |  |  |  |  | all grew (no drug effect) |  | all grew (no inhibition) | all grew (no drug effect) |  | all grew | all grew |  |  |  | 5 µg/mL (≈ 16.9 µM) |  |

Source: patent publication US10307418B2, “Azole pharmaceutical formulations for parenteral administration and methods for preparing and using the same as treatment of diseases sensitive to azole compounds” (Platform Brightworks Two, Ltd., priority 2010, dated 2019)
